What was measured:
[1] = system: Veronica persica (bird's-eye speedwell, VERPE); assay: Greenhouse postemergence trial VERPE; format: in vivo; details: VERPE; for visual injury, Obs: partner herbicide 560 g/ha alone
[2] = system: Salsola kali (Russian thistle, SASKR); assay: Greenhouse postemergence trial SASKR; format: in vivo; details: SASKR; for visual injury, Obs: partner herbicide 560 g/ha alone;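 for all read-outs here: greenhouse plants sprayed at second or third true leaf stage, injury rated by eye after 20-22 d against solvent-blank controls, 0 meaning no injury, 100 complete kill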
Method: (§1) The plants were grown for 7-36 days (d) in a greenhouse with an approximate 14-hour (h) photo-period which was maintained at about 23° C. during the day and 22° C. during the night. Nutrients and water were added on a regular basis and supplemental lighting was provided with overhead metal halide 1000-Watt lamps as necessary. The plants were employed for testing when they reached the second or third true leaf stage.
(§2) The emulsifiable concentrates also included a safener, cloquintocet-mexyl, at 120 grams active ingredient per liter (g ai/L), unless otherwise noted below.
(§3) Control plants were sprayed in the same manner with the solvent blank. All pyridine carboxylate herbicide (component a) application rates are given as “g ae/ha” and all synthetic auxin herbicide or auxin transport inhibitor (component b) application rates are given as “g ai/ha.”
(§4) The treated plants and control plants were placed in a greenhouse as described above and watered by sub-irrigation to prevent wash-off of the test compounds. After 20-22 d, the condition of the test plants as compared with that of the control plants was determined visually and scored on a scale of 0 to 100 percent where 0 corresponds to no injury and 100 corresponds to complete kill.

[3] = system: Lamium purpureum (purple deadnettle, LAMPU); assay: Greenhouse postemergence trial LAMPU; details: LAMPU; for visual injury, Obs: partner herbicide 560 g/ha alone
Method: as §1, §2, §3, §4

[4] = system: Anthemis arvensis (field chamomile, ANTAR); assay: Greenhouse postemergence trial ANTAR; format: in vivo; details: ANTAR; for visual injury, Obs: partner herbicide 560 g/ha alone
[5] = system: Capsella bursa-pastoris (shepherd's purse, CAPBP); assay: Greenhouse postemergence trial CAPBP; format: in vivo; details: CAPBP; for visual injury, Obs: partner herbicide 560 g/ha alone
[6] = system: Papaver rhoeas (corn poppy, PAPRH); assay: Greenhouse postemergence trial PAPRH; format: in vivo; details: PAPRH; for visual injury, Obs: partner herbicide 560 g/ha alone
[7] = system: Amaranthus retroflexus (pigweed, AMARE); assay: Greenhouse postemergence trial AMARE; format: in vivo; details: for % visual injury: c1-2 Compound A 7.5/10;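 for all read-outs here: Greenhouse-grown plants sprayed at second to third true leaf stage, injury rated by eye after 20-22 d versus solvent-blank sprayed controls, 0 = no injury, 100 = complete kill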
Method: as §1, §2, §3, §4

[8] = system: Chenopodium album L. (common lambsquarters, CHEAL); assay: Greenhouse postemergence trial CHEAL; format: in vivo; details: for % visual injury: c1-2 Compound A 7.5/10;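 for all read-outs here: greenhouse plants sprayed at second to third true leaf stage, injury rated by eye after 20-22 d versus solvent-blank sprayed controls, 0 = no injury, 100 = complete kill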
[9] = system: Matricaria inodora (false chamomile, MATIN); assay: Greenhouse postemergence trial MATIN; format: in vivo; details: MATIN; for visual injury, Obs: partner herbicide 560 g/ha alone
[10] = system: Matricaria chamomilla (wild chamomile, MATCH); assay: Greenhouse postemergence trial MATCH; format: in vivo; details: MATCH; for visual injury, Obs: partner herbicide 560 g/ha alone; for % visual injury, Obs: applied alone;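 for all read-outs here: greenhouse plants sprayed at second to third true leaf stage, injury rated by eye 20-22 d later versus solvent-blank controls on 0–100 scale, 0 no injury, 100 complete kill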
[11] = system: Viola tricolor (wild pansy, VIOTR); assay: Greenhouse postemergence trial VIOTR; details: VIOTR; for visual injury, Obs: partner herbicide 560 g/ha alone;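 for all read-outs here: greenhouse plants sprayed at second to third true leaf stage, injury rated visually after 20-22 d against solvent-blank sprayed controls, 0 meaning no injury and 100 complete kill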
Method: (§5) Seeds of the desired test plant species were planted in a 90:10% v/v (volume/volume) mixture of PRO-MIX® BX (Premier Tech Horticulture, Quakertown, PA, USA) and PROFILE® GREENS GRADE™ (Profile Products LLC, Buffalo Grove, IL, USA) planting mixture, which typically has a pH of 5.2 to 6.2 and an organic matter content of at least 50 percent, in plastic pots with a surface area of 103.2 square centimeters (cm^2). […] The plants were grown for 7-36 days (d) in a greenhouse with an approximate 14-hour (h) photo-period which was maintained at about 23° C. during the day and 22° C. during the night. Nutrients and water were added on a regular basis and supplemental lighting was provided with overhead metal halide 1000-Watt lamps as necessary. The plants were employed for testing when they reached the second or third true leaf stage.
(§6) Emulsifiable concentrates of each of each pyridine carboxylate herbicide (Compound A or Compound B) were prepared at 100 grams acid equivalent per liter (g ae/L). The emulsifiable concentrates also included a safener, cloquintocet-mexyl, at 120 grams active ingredient per liter (g ai/L), unless otherwise noted below. An aliquot of each emulsifiable concentrate was placed in a 25 mL glass vial and diluted with an aqueous mixture of 1.25% (v/v) ACTIROB® B esterified rapeseed oil (Bayer Crop Science, Research Triangle Park, NC, USA) or MSO® Concentrate with LECI-TECH® methylated soybean oil (Loveland Products, Loveland, CO, USA) to obtain concentrated stock solutions at the highest application rate for each herbicide, based upon a 12 milliliter (mL) application volume at a rate of 187 liters per hectare (L/ha). The concentrated stock solutions were further diluted with an aqueous mixture of 1.25% v/v ACTIROB® B or MSO® Concentrate with LECI-TECH® to obtain stock solutions at reduced application rates for each herbicide. Spray solutions of the herbicide combinations (Compound A or Compound B plus synthetic auxin herbicide or auxin transport inhibitor) were prepared by adding weighed amounts or aliquots of the synthetic auxin herbicide or auxin transport inhibitor to the stock solutions of Compound A or Compound B to form 12-mL spray solutions in two-way combinations.
(§7) The spray solutions were applied to the plant material with an overhead Mandel track sprayer equipped with 8002E nozzles calibrated to deliver 187 L/ha over an application area of 0.503 square meters (m^2) at a spray height of 18 inches (43 centimeters (cm)) above the average plant canopy. Control plants were sprayed in the same manner with the solvent blank. All pyridine carboxylate herbicide (component a) application rates are given as “g ae/ha” and all synthetic auxin herbicide or auxin transport inhibitor (component b) application rates are given as “g ai/ha.”
as §4

[12] = system: Cyanus segetum (cornflower, CENCY); assay: Greenhouse postemergence trial CENCY; format: in vivo; details: CENCY; for visual injury, Obs: partner herbicide 560 g/ha alone
[13] = system: Sinapis arvensis (wild mustard, SINAR); assay: Greenhouse postemergence trial SINAR; format: in vivo; details: SINAR; for visual injury, Obs: partner herbicide 560 g/ha alone
[14] = system: Viola arvensis (field violet, VIOAR); assay: Greenhouse postemergence trial VIOAR; format: in vivo; details: VIOAR; for visual injury, Obs: partner herbicide 560 g/ha alone
Method: as §5, §6, §7, §4

[15] = system: Papaver rhoeas (corn poppy), herbicide-resistant (PAPRH-R); assay: Greenhouse postemergence trial PAPRH-R; format: in vivo; details: PAPRH-R; for visual injury, Obs: partner herbicide 560 g/ha alone
[16] = system: Cirsium arvense (Canadian thistle, CIRAR); assay: Greenhouse postemergence trial CIRAR; format: in vivo; details: for visual injury, Obs: partner herbicide 560 g/ha alone
[17] = system: Matricaria discoidea (pineapple weed, MATMT); assay: Greenhouse postemergence trial MATMT; format: in vivo; details: MATMT; for visual injury, Obs: partner herbicide 560 g/ha alone
Method: as §5, §6, §7, §4

[18] = system: Veronica hederifolia (ivyleaf speedwell, VERHE); assay: Greenhouse postemergence trial VERHE; format: in vivo; details: VERHE; for visual injury, Obs: partner herbicide 560 g/ha alone
[19] = system: Polygonum convolvulus (wild buckwheat, POLCO); assay: Greenhouse postemergence trial POLCO; format: in vivo; details: for visual injury, Obs: partner herbicide 560 g/ha alone
Method: as §5, §6, §7, §4

[20] = system: Triticum aestivum (spring wheat, TRZAS); format: in vivo
[21] = system: Stellaria media (chickweed, STEME); assay: Greenhouse postemergence trial STEME; format: in vivo; details: STEME; for visual injury, Obs: partner herbicide 560 g/ha alone
[22] = system: Kochia scoparia (kochia, KCHSC); assay: Greenhouse postemergence trial KCHSC; format: in vivo; details: KCHSC; for visual injury, Obs: partner herbicide 560 g/ha alone
[23] = system: Brassica napus (winter rape, BRSNW); assay: Greenhouse postemergence trial BRSNW; format: in vivo; details: for visual injury, Obs: partner herbicide 560 g/ha alone
Method: as §5, §6, §7, §4

[24] = system: Hordeum vulgare (winter barley, HORVW); assay: Greenhouse postemergence crop phytotoxicity HORVW; format: in vivo; details: HORVW; applied alone, 560 g/ha
Method: as §5, §6, §7, §4

[25] = system: Hordeum vulgare (spring barley, HORVS); format: in vivo; details: HORVS
Method: as §5, §6, §7, §4

[26] = system: Triticum aestivum (winter wheat, TRZAW); assay: Greenhouse postemergence crop phytotoxicity TRZAW; format: in vivo; details: TRZAW; applied alone, 560 g/ha
[27] = c3 2,4-D-EHE 280, c4-5 A 7.5/10 + 2,4-D-EHE 280 g/ha
[28] = c3 Dicamba 140, c4-5 A 7.5/10 + Dicamba 140 g/ha

## CCCCC(CC)COC(=O)COc1ccc(Cl)cc1Cl [2,4-D-EHE, 2,4-D-2-ethylhexyl, reference compound]
[1]
  visual injury, Obs: 65%
[2]
  visual injury, Obs: 65%
[3]
  visual injury, Obs: 20%
[4]
  visual injury, Obs: 60%
[5]
  visual injury, Obs: 70%
[6]
  visual injury, Obs: 60%
[7]; 2,4-D-EHE 280 g/ha (Table 36)
  AMARE % visual injury Obs: 45%
[7]; [27]
  % visual injury: 70%
[8]; [27]
  % visual injury: 75%
[9]
  visual injury, Obs: 10%
[10]
  visual injury, Obs: 10%
[11]
  visual injury, Obs: 65%
[12]
  visual injury, Obs: 100%
[13]
  visual injury, Obs: 85%
[14]
  visual injury, Obs: 60%
[15]
  visual injury, Obs: 50%
[16]; 2,4-D-EHE 280 g/ha (Table 36)
  CIRAR % visual injury Obs: 45%
[16]; CIRAR
  visual injury, Obs: 65%
[17]
  visual injury, Obs: 5%
[18]
  visual injury, Obs: 70%
[19]; 2,4-D-EHE 280 g/ha (Table 36)
  POLCO % visual injury Obs: 23%
  POLCO Δ (Obs minus Exp): 11%
[19]; POLCO
  visual injury, Obs: 30%
[20]; c1-2 Compound A 7.5/10, c3 2,4-D-EHE 280, c4-5 A 7.5/10 + 2,4-D-EHE 280 g/ha
  % visual injury (crop phytotoxicity): 0%
[21]
  visual injury, Obs: 10%
[22]
  visual injury, Obs: 65%
[23]; 2,4-D-EHE 280 g/ha (Table 36)
  BRSNW % visual injury Obs: 65%
  BRSNW Δ (Obs minus Exp): 3%
[23]; BRSNW
  visual injury, Obs: 100%

## COc1c(Cl)ccc(Cl)c1C(=O)O [Dicamba, dicamba, reference compound]
[1]
  visual injury, Obs: 60%
[2]
  visual injury, Obs: 65%
[3]
  visual injury, Obs: 20%
[4]
  visual injury, Obs: 100%
[5]
  visual injury, Obs: 60%
[6]
  visual injury, Obs: 30%
[7]; AMARE, applied alone, 140 g/ha
  % visual injury, Obs: 60%
[7]; [28]
  % visual injury: 50%
[8]; [28]
  % visual injury: 48%
[9]
  visual injury, Obs: 70%
[10]; 140 g/ha
  % visual injury, Obs: 3%
[10]
  visual injury, Obs: 35%
[11]
  visual injury, Obs: 20%
[12]
  visual injury, Obs: 100%
[13]
  visual injury, Obs: 85%
[14]
  visual injury, Obs: 30%
[15]
  visual injury, Obs: 30%
[16]; CIRAR
  visual injury, Obs: 70%
[17]
  visual injury, Obs: 25%
[18]
  visual injury, Obs: 75%
[19]; POLCO
  visual injury, Obs: 100%
[21]
  visual injury, Obs: 75%
[22]
  visual injury, Obs: 80%
[23]; BRSNW
  visual injury, Obs: 70%
[23]; Brassica napus, post-emergence, BRSNW, applied alone, 140 g/ha, read-out: % visual injury, Obs
  plant injury at 140 g/ha: 23%

## Cc1cc(Cl)ccc1OC(C)C(=O)O (stereo not shown) [Mecoprop]
[1]; applied alone, 560 g/ha
  % visual injury, Obs: 30%
[2]; applied alone, 560 g/ha
  % visual injury, Obs: 50%
[3]; applied alone, 560 g/ha
  % visual injury, Obs: 10%
[4]; applied alone, 560 g/ha
  % visual injury, Obs: 10%
[24]
  % visual injury, Obs: 0%
[5]; applied alone, 560 g/ha
  % visual injury, Obs: 60%
[6]; applied alone, 560 g/ha
  % visual injury, Obs: 65%
[7]; AMARE, alone 280 g/ha
  % visual injury (Obs): 58%
[8]; CHEAL, alone 280 g/ha
  % visual injury (Obs): 73%
[9]; applied alone, 560 g/ha
  % visual injury, Obs: 65%
[25]; alone 280 g/ha
  % visual injury (Obs): 0%
[25]; applied alone, 560 g/ha
  % visual injury, Obs: 0%
[10]; alone 280 g/ha
  % visual injury (Obs): 18%
[10]; 560 g/ha
  % visual injury, Obs: 10%
[26]
  % visual injury, Obs: 0%
[11]; applied alone, 560 g/ha
  % visual injury, Obs: 65%
[12]; applied alone, 560 g/ha
  % visual injury, Obs: 100%
[13]; alone 280 g/ha
  % visual injury (Obs): 80%
[13]; applied alone, 560 g/ha
  % visual injury, Obs: 95%
[14]; applied alone, 560 g/ha
  % visual injury, Obs: 10%
[15]; applied alone, 560 g/ha
  % visual injury, Obs: 30%
[16]; CIRAR, alone 280 g/ha
  % visual injury (Obs): 68%
[16]; CIRAR, applied alone, 560 g/ha
  % visual injury, Obs: 70%
[17]; applied alone, 560 g/ha
  % visual injury, Obs: 10%
[18]; applied alone, 560 g/ha
  % visual injury, Obs: 50%
[19]; POLCO, alone 280 g/ha
  % visual injury (Obs): 10%
[19]; POLCO, applied alone, 560 g/ha
  % visual injury, Obs: 20%
[20]; TRZAS, alone 280 g/ha
  % visual injury (Obs): 0%
[20]; TRZAS, applied alone, 560 g/ha
  % visual injury, Obs: 0%
[21]; applied alone, 560 g/ha
  % visual injury, Obs: 30%
[22]; alone 280 g/ha
  % visual injury (Obs): 68%
[22]; applied alone, 560 g/ha
  % visual injury, Obs: 80%
[23]; BRSNW, alone 280 g/ha
  % visual injury (Obs): 63%
[23]; Brassica napus, post-emergence, BRSNW, applied alone, 560 g/ha, read-out: % visual injury, Obs
  plant injury at 560 g/ha: 75%
